The source of these data is article PMC7709957 (2020).

The subject of the assay is F. ulcerans ZTP riboswitch (pfl RNA, 75-nt aptamer domain, crystal construct) (RNA, riboswitch) UAUCAGUUAUAUGACUGACGGAACGUGGAAUUAACCACAUGAAGUAUAACGAUGACAAUGCCGACCGUCUGGGCG
As to the kind of experiment: ITC. The note with it: 150 mM KCl, 10 mM MgCl2, 50 mM Hepes-KOH pH 7.4, 37 °C.

In turn, `NC(=O)c1nc[nH]c1N` displayed a Kd of 41000 ± 4000 nM.
On the same count and under the same terms, as for `NC(=O)c1ncn(-c2ccccn2)c1N`, the figure is 5600 ± 3200 nM.
With `NC(=O)c1ncn(-c2cccnc2)c1N`, under “3% DMSO”, the Kd is 600 ± 60 nM.
`NC(=O)c1ncn([C@@H]2O[C@H](CO)[C@@H](O)[C@H]2O)c1N` registered a Kd of 2300 ± 600 nM.
Same read-out and setting: the same measure for `NC(=O)c1ncn([C@@H]2O[C@H](COP(=O)(O)O)[C@@H](O)[C@H]2O)c1N`: 320 ± 130 nM.

As a reminder, the Kd is the equilibrium constant for the complex coming apart. Lower therefore signals a tighter complex.
